Like-named read-outs stand apart in the source and are kept apart here. Bounds are passed on as bounds.

The results in this text go back to US20250064844A1 (Emory University, priority 2020, published 2025).

Data set [1] can be described thus: in vitro. The note with it: both, human, plasma.
For data set [2] the following is noted: cynomolgus monkey, in vivo, po; for AUC0->24h / CL / Cmax / Tmax / t1/2: 0.4 mmol/kg.
The nature of data set [3]: in vitro. As to conditions: male, CD-1, mouse, microsomes, pH 7.4.
A short description of data set [4]: in vitro. As to conditions: male, CD-1, mouse, plasma.
Data set [5] in a line: in vitro. The note with it: monkey, plasma.
Data set [6] in a line: in vitro. The note with it: male, Sprague-Dawley, rat, plasma.
For data set [7] the following is noted: human, in vivo.
Data set [8] relates to Vero cells.
Data set [9] concerns CEM cells.
Data set [10] is described as follows: in vitro. The note with it: dog, plasma.
Data set [11] has as its system HepG2 cells.
In data set [12] the test system is Huh-7 cells.
Data set [13] can be described thus: in vitro. As to conditions: monkey, microsomes, pH 7.4.
Data set [14] is described as follows: in vivo. The note with it: ICR (CD-1), mouse, 15 mg/kg.
A short description of data set [15]: in vitro. The note with it: both, human, microsomes, pH 7.4.

As a reminder, the half-life is the time in which the quantity being followed falls by half. Read a high half-life as slow decline. Take `CC(C)C(=O)OC[C@H]1O[C@@H](n2ccc(NO)nc2=O)[C@H](OC(=O)C(C)C)[C@@H]1OC(=O)C(C)C` [EIDD-2800]: the half-life at 1 μM in data set [1] came out at 1 min; in [4], 1 min; in [5] it was 2 min. For the same compound, the figures for the “F*” value in data set [2] (female) and in [2] (male) were around 16% and around 27%, respectively. Besides, the half-life in [3] is below 1 min.
For `CC(C)C(=O)OC[C@H]1O[C@@H](n2ccc(NO)nc2=O)[C@H](O)[C@@H]1O` [EIDD-2801], the half-life at 1 μM in [1] amounted to 63 min; in data set [6] it was 1 min; in data set [10] it was 192 min; in data set [4], 1 min; in data set [5], 24 min. Further, the “F*” value in data set [2] (female) is given as around 26%; in data set [2] (male) it was around 22%. In addition, in data set [7], the hematological parameters entry was “no clinically significant changes in hematological parameters”. Further, the “AUC0−>t” value in [8] is reported as 1724 pmol · h/M cells; in data set [9], 85.3 pmol · h/M cells; in [11] it was 360.3 pmol · h/M cells; in [12], 1025 pmol · h/M cells. The Cmax in data set [8] turned out to be 121.2 pmol/M Cells; in data set [9], 5.4 pmol/M Cells; in [11], 18.9 pmol/M Cells; in [12], 77.5 pmol/M Cells.
What is called Tmax is the time at which the peak concentration occurs. What is called AUC(0-inf) is the area under the concentration-time curve extrapolated to infinity. A lower AUC(0-inf) goes with less exposure. Take `CC(C)[C@H](N)C(=O)OC[C@H]1O[C@@H](n2ccc(NO)nc2=O)[C@H](O)[C@@H]1O` [EIDD-2898]: the half-life at 1 μM in data set [1] stood at 198 min. For the same compound, in data set [2] (female), the “F*” value is around 15%, the “AUC0->24h” value came to 26.9 ± 4.8 µM·h, the CL is 265 ± 53.3 mL/min/kg and the Cmax is 15.9 ± 8.1 µM. In data set [2] (female), the time to peak (Tmax) was determined as 78 ± 30 min and the t1/2 was found to be 33 ± 15 min. Also, in [2] (male), the “F*” value is around 18%, the “AUC0->24h” value was 26.1 ± 5.2 µM·h, the CL was 273 ± 51.7 mL/min/kg and the Cmax was 9.1 ± 2.7 µM. Besides, in data set [2] (male), the Tmax is 138 ± 57.6 min and the t1/2 is 31.8 ± 9.6 min. In [13], this compound had a half-life of 13 min. Moreover, in data set [14], the area under the curve AUC(0-inf) amounted to 8.23 µM·h, the Cmax came to 23.1 µM, the time to peak (Tmax) amounted to 4.8 min and the half-life is 20.4 min. In data set [4], the half-life at 1 μM amounted to 144 min. In [15], this compound showed a half-life of 14 min. The half-life at 1 μM in [5] was 138 min.
